In brackets after ≈: the same amount, converted by molar mass.
What was measured:
[1] = Acid dissociation constant, pKa for SH group of the compound in DMSO-water mixture at 25 +/- 0.1 degC by potentiometric method; assay type: physicochemical
[2] = test system: Acinetobacter baumannii; assay: Antibacterial activity against Acinetobacter baumannii ATCC 02026; assay type: functional
[3] = Acid dissociation constant, pKa for OH group of the compound in DMSO-water mixture at 25 +/- 0.1 degC by potentiometric method; assay type: physicochemical
[4] = test system: Nakaseomyces glabratus; assay: Antifungal activity against Candida glabrata ATCC 90030 after 48 hrs by microdilution broth method; assay type: functional; details: ATCC 90030, 48 h
[5] = test system: Escherichia coli; assay: Antibacterial activity against Escherichia coli; assay type: functional
[6] = Acid dissociation constant, pKa for NH group of the compound in DMSO-water mixture at 25 +/- 0.1 degC by potentiometric method; assay type: physicochemical
[7] = test system: Aeromonas hydrophila; assay: Antibacterial activity against Aeromonas hydrophila ATCC 95080; assay type: functional
[8] = test system: Staphylococcus aureus; assay: Antibacterial activity against Staphylococcus aureus ATCC 25925; assay type: functional
[9] = test system: Bacillus spizizenii; assay: Antibacterial activity against Bacillus subtilis ATCC 6633; assay type: functional
[10] = test system: Mycobacterium tuberculosis; assay: Antimycobacterial activity against Mycobacterium tuberculosis H37Rv after 7 days by REMA; assay type: functional; details: 168 h
[11] = test system: Candida tropicalis; assay: Antifungal activity against Candida tropicalis ATCC 750 after 48 hrs by microdilution broth method; assay type: functional; details: ATCC 750, 48 h
[12] = test system: Candida parapsilosis; assay: Antifungal activity against Candida parapsilosis ATCC 22019 after 48 hrs by microdilution broth method; assay type: functional; details: Lodderomyces parapsilosis, ATCC 22019, 48 h

Compound | pKa [1] | MIC [2] | pKa [3] | MIC [4] | MIC [5] | pKa [6] | MIC [7] | MIC [8] | MIC [9] | MIC [10] | MIC [11] | MIC [12]
COC(=O)[C@H]1C[C@@H](S(=O)(=O)c2ccccc2)C(c2ccccc2)(c2ccccc2)N1c1nc(-c2ccccc2)c(C(=O)c2ccccc2)s1 | 5.9 | 31.2 µg/mL (≈ 45.6 µM) | 8.64 | 31.2 µg/mL (≈ 45.6 µM) | 125 µg/mL (≈ 183 µM) | 3.26 | 62.5 µg/mL (≈ 91.3 µM) | 125 µg/mL (≈ 183 µM) | 62.5 µg/mL (≈ 91.3 µM) | 3.91 µg/mL (≈ 5.71 µM) | 31.2 µg/mL (≈ 45.6 µM) | 62.5 µg/mL (≈ 91.3 µM)
CC1(C)S[C@@H]2[C@H](NC(=O)[C@H](N)c3ccccc3)C(=O)N2[C@H]1C(=O)O [AMPICILLIN] |  | 125 µg/mL (≈ 358 µM) |  |  | 15.6 µg/mL (≈ 44.7 µM) |  | 31.2 µg/mL (≈ 89.4 µM) | 31.2 µg/mL (≈ 89.4 µM) | 0.98 µg/mL (≈ 2.8 µM) |  |  | 
OC(Cn1cncn1)(Cn1cncn1)c1ccc(F)cc1F [FLUCONAZOLE] |  |  |  | 3.9 µg/mL (≈ 12.7 µM) |  |  |  |  |  |  | 15.6 µg/mL (≈ 51 µM) | 3.9 µg/mL (≈ 12.7 µM)
CC[C@@H](CO)NCCN[C@@H](CC)CO [ETHAMBUTOL] |  |  |  |  |  |  |  |  |  | 1.96 µg/mL (≈ 9.59 µM) |  | 
COC(=O)[C@H]1[C@@H](C(=O)OC)C(c2ccccc2)(c2ccccc2)N(c2nc(-c3ccccc3)c(C(=O)c3ccc(F)cc3)s2)[C@H]1C(=O)OC | 6.37 | 62.5 µg/mL (≈ 92.1 µM) | 10.2 | 31.2 µg/mL (≈ 46 µM) | 125 µg/mL (≈ 184 µM) | 2.73 | 62.5 µg/mL (≈ 92.1 µM) | 125 µg/mL (≈ 184 µM) | 62.5 µg/mL (≈ 92.1 µM) | 15.6 µg/mL (≈ 23 µM) | 62.5 µg/mL (≈ 92.1 µM) | 62.5 µg/mL (≈ 92.1 µM)
COC(=O)[C@H]1[C@@H](C(=O)OC)C(c2ccccc2)(c2ccccc2)N(c2nc(-c3ccccc3)c(C(=O)c3ccc(Br)cc3)s2)[C@H]1C(=O)OC | 6.02 | 62.5 µg/mL (≈ 84.5 µM) | 9.23 | 31.2 µg/mL (≈ 42.3 µM) | 125 µg/mL (≈ 169 µM) | 3.27 | 62.5 µg/mL (≈ 84.5 µM) | 125 µg/mL (≈ 169 µM) | 62.5 µg/mL (≈ 84.5 µM) | 3.91 µg/mL (≈ 5.29 µM) | 125 µg/mL (≈ 169 µM) | 125 µg/mL (≈ 169 µM)
COC(=O)[C@H]1C[C@@H](C(=O)OC)C(c2ccccc2)(c2ccccc2)N1c1nc(-c2ccccc2)c(C(=O)c2ccccc2)s1 | 6.58 | 250 µg/mL (≈ 415 µM) | 9.67 | 31.2 µg/mL (≈ 51.8 µM) | 125 µg/mL (≈ 207 µM) | 2.99 | 250 µg/mL (≈ 415 µM) | 125 µg/mL (≈ 207 µM) | 125 µg/mL (≈ 207 µM) | 15.6 µg/mL (≈ 25.9 µM) | 62.5 µg/mL (≈ 104 µM) | 62.5 µg/mL (≈ 104 µM)
NNC(=O)c1ccncc1 [ISONIAZID] |  |  |  |  |  |  |  |  |  | 0.98 µg/mL (≈ 7.15 µM) |  | 
COC(=O)[C@H]1C[C@@H](C(=O)OC)C(c2ccccc2)(c2ccccc2)N1c1nc(-c2ccccc2)c(C(=O)c2ccc(F)cc2)s1 | 6.09 | 250 µg/mL (≈ 403 µM) | 9.69 | 62.5 µg/mL (≈ 101 µM) | 125 µg/mL (≈ 201 µM) | 2.63 | 125 µg/mL (≈ 201 µM) | 125 µg/mL (≈ 201 µM) | 250 µg/mL (≈ 403 µM) | 15.6 µg/mL (≈ 25.2 µM) | 62.5 µg/mL (≈ 101 µM) | 62.5 µg/mL (≈ 101 µM)
COC(=O)[C@H]1C[C@@H](S(=O)(=O)c2ccccc2)C(c2ccccc2)(c2ccccc2)N1c1nc(-c2ccccc2)c(C(=O)c2ccc(C#N)cc2)s1 | 5.78 | 62.5 µg/mL (≈ 88 µM) | 8.83 | 31.2 µg/mL (≈ 44 µM) | 125 µg/mL (≈ 176 µM) | 3.56 | 62.5 µg/mL (≈ 88 µM) | 125 µg/mL (≈ 176 µM) | 62.5 µg/mL (≈ 88 µM) | 3.91 µg/mL (≈ 5.51 µM) | 62.5 µg/mL (≈ 88 µM) | 62.5 µg/mL (≈ 88 µM)
COC(=O)[C@H]1C[C@@H](S(=O)(=O)c2ccccc2)C(c2ccccc2)(c2ccccc2)N1c1nc(-c2ccccc2)c(C(=O)c2ccc(F)cc2)s1 | 5.84 | 62.5 µg/mL (≈ 88.9 µM) | 8.73 | 31.2 µg/mL (≈ 44.5 µM) | 125 µg/mL (≈ 178 µM) | 3.4 | 62.5 µg/mL (≈ 88.9 µM) | 125 µg/mL (≈ 178 µM) | 62.5 µg/mL (≈ 88.9 µM) | 1.96 µg/mL (≈ 2.79 µM) | 62.5 µg/mL (≈ 88.9 µM) | 62.5 µg/mL (≈ 88.9 µM)
COC(=O)[C@H]1C[C@@H](S(=O)(=O)c2ccccc2)C(c2ccccc2)(c2ccccc2)N1c1nc(-c2ccccc2)c(C(=O)c2ccc(Br)cc2)s1 | 5.99 | 31.2 µg/mL (≈ 40.9 µM) | 9.53 | 31.2 µg/mL (≈ 40.9 µM) | 125 µg/mL (≈ 164 µM) | 2.97 | 62.5 µg/mL (≈ 81.8 µM) | 125 µg/mL (≈ 164 µM) | 62.5 µg/mL (≈ 81.8 µM) | 0.98 µg/mL (≈ 1.28 µM) | 62.5 µg/mL (≈ 81.8 µM) | 62.5 µg/mL (≈ 81.8 µM)
COC(=O)[C@H]1C[C@@H](C(=O)OC)C(c2ccccc2)(c2ccccc2)N1c1nc(-c2ccccc2)c(C(=O)c2ccc(Br)cc2)s1 | 5.99 | 125 µg/mL (≈ 183 µM) | 9.91 | 62.5 µg/mL (≈ 91.7 µM) | 250 µg/mL (≈ 367 µM) | 3.11 | 250 µg/mL (≈ 367 µM) | 250 µg/mL (≈ 367 µM) | 250 µg/mL (≈ 367 µM) | 7.81 µg/mL (≈ 11.5 µM) | 62.5 µg/mL (≈ 91.7 µM) | 31.2 µg/mL (≈ 45.8 µM)
COC(=O)[C@H]1[C@@H](C(=O)OC)C(c2ccccc2)(c2ccccc2)N(c2nc(-c3ccccc3)c(C(=O)c3ccc(C#N)cc3)s2)[C@H]1C(=O)OC | 5.66 | 62.5 µg/mL (≈ 91.1 µM) | 8.9 | 31.2 µg/mL (≈ 45.6 µM) | 125 µg/mL (≈ 182 µM) | 3.53 | 62.5 µg/mL (≈ 91.1 µM) | 125 µg/mL (≈ 182 µM) | 62.5 µg/mL (≈ 91.1 µM) | 7.81 µg/mL (≈ 11.4 µM) | 62.5 µg/mL (≈ 91.1 µM) | 31.2 µg/mL (≈ 45.6 µM)
COC(=O)[C@H]1C[C@@H](C(=O)OC)C(c2ccccc2)(c2ccccc2)N1c1nc(-c2ccccc2)c(C(=O)c2ccc(C#N)cc2)s1 | 5.61 | 250 µg/mL (≈ 398 µM) | 8.67 | 31.2 µg/mL (≈ 49.8 µM) | 125 µg/mL (≈ 199 µM) | 3.78 | 250 µg/mL (≈ 398 µM) | 125 µg/mL (≈ 199 µM) | 250 µg/mL (≈ 398 µM) | 15.6 µg/mL (≈ 24.9 µM) | 62.5 µg/mL (≈ 99.6 µM) | 62.5 µg/mL (≈ 99.6 µM)
COC(=O)[C@H]1[C@@H](C(=O)OC)C(c2ccccc2)(c2ccccc2)N(c2nc(-c3ccccc3)c(C(=O)c3ccccc3)s2)[C@H]1C(=O)OC | 5.81 | 62.5 µg/mL (≈ 94.6 µM) | 8.5 | 31.2 µg/mL (≈ 47.3 µM) | 125 µg/mL (≈ 189 µM) | 3.35 | 62.5 µg/mL (≈ 94.6 µM) | 125 µg/mL (≈ 189 µM) | 62.5 µg/mL (≈ 94.6 µM) | 15.6 µg/mL (≈ 23.6 µM) | 62.5 µg/mL (≈ 94.6 µM) | 62.5 µg/mL (≈ 94.6 µM)
COC(=O)[C@H]1[C@@H](C(=O)OC)C(c2ccccc2)(c2ccccc2)N(c2nc(-c3ccccc3)c(C(=O)c3ccc(OC)cc3)s2)[C@H]1C(=O)OC | 6.77 | 62.5 µg/mL (≈ 90.5 µM) | 10.2 | 31.2 µg/mL (≈ 45.2 µM) | 250 µg/mL (≈ 362 µM) | 2.83 | 62.5 µg/mL (≈ 90.5 µM) | 125 µg/mL (≈ 181 µM) | 125 µg/mL (≈ 181 µM) | 15.6 µg/mL (≈ 22.6 µM) | 62.5 µg/mL (≈ 90.5 µM) | 62.5 µg/mL (≈ 90.5 µM)
COC(=O)[C@H]1C[C@@H](S(=O)(=O)c2ccccc2)C(c2ccccc2)(c2ccccc2)N1c1nc(-c2ccccc2)c(C(=O)c2ccc(OC)cc2)s1 | 6.01 | 62.5 µg/mL (≈ 87.4 µM) | 9.28 | 31.2 µg/mL (≈ 43.7 µM) | 125 µg/mL (≈ 175 µM) | 3.35 | 62.5 µg/mL (≈ 87.4 µM) | 125 µg/mL (≈ 175 µM) | 62.5 µg/mL (≈ 87.4 µM) | 3.91 µg/mL (≈ 5.47 µM) | 62.5 µg/mL (≈ 87.4 µM) | 62.5 µg/mL (≈ 87.4 µM)
COC(=O)[C@H]1C[C@@H](C(=O)OC)C(c2ccccc2)(c2ccccc2)N1c1nc(-c2ccccc2)c(C(=O)c2ccc(OC)cc2)s1 | 6.31 | 250 µg/mL (≈ 395 µM) | 10 | 62.5 µg/mL (≈ 98.8 µM) | 250 µg/mL (≈ 395 µM) | 2.46 | 125 µg/mL (≈ 198 µM) | 250 µg/mL (≈ 395 µM) | 250 µg/mL (≈ 395 µM) | 15.6 µg/mL (≈ 24.7 µM) | 62.5 µg/mL (≈ 98.8 µM) | 125 µg/mL (≈ 198 µM)
